Where two headings read alike, the source gives them in different places. No end group written: not given here.
Legend:
[1] = Synergy of Shiva-1 and lysozyme, percent viability; type: cell-based, Pseudomonas aeruginosa; details: Pseudomonas aeruginosa
Procedure: The percent viability of Pseudomonas aeruginosa was determined relative to blank controls.

[2] = Synergy of Shiva-1 and lysozyme, percent viability; type: cell-based, Staphylococcus intermedius
Procedure: (§1) The percent viability of gram positive S. intermedius 19930, S. intermedius 20034, and S. aureus was determined relative to blank controls.

[3] = Synergy of Shiva-1 and lysozyme, percent viability; type: cell-based, Staphylococcus aureus; details: S. aureus
Procedure: as §1

[4] = tested on: MCF7; assay: Anti-cancer assay, MTT, LD50; type: cell-based; details: for MCF7 LD50: Table 41, lower part
Source text: (§2) Numbers are LD50 values (μg/mL).

[5] = in vitro; type: cell-based, human; details: human, human red blood cells
[6] = Leukocyte (WBC) inhibition, toxicity LD50; type: cell-based, human; details: male, human, human leukocytes (buffy coat cells, mostly PBMCs); Table 41, lower part
Procedure: In vitro viability of human leukocyte cells in the presence of different peptides at different concentrations was determined by an Alamar Blue protocol. Alamar Blue (Promega, Madison, Wis.) is an indicator dye, formulated to measure quantitatively the proliferation and cytotoxicity of the cells. The dye consists of an oxidation-reduction (redox) indicator that yields a calorimetric change and a fluorescent signal in response to cellular metabolic activity.
Assay protocol: Blood from a human was drawn and centrifuged at 1500 rpm for 15 minutes at room temperature. The buffy coat cells at the plasma-red blood cell interface were aspirated. Buffy coat cells (mainly lymphocyte cells) were then transferred into 15 ml centrifuge tubes containing 5 ml of RPMI-1640 medium+10% Fetal Bovine Serum (Gibco, Grand Island, N.Y.). Additional medium was added to the tubes to bring the volume up to 10 ml. The buffy coat suspension was then carefully layered on 5 ml of Histopaque (Sigma Chemical Co., St. Louis, Mo.) and centrifuged at 1500 rpm for 30 minutes at room temperature. The interface which is mostly PBMCs (peripheral mononuclear cells) was aspirated and transferred to a 15 ml conical centrifuge tube and, resuspended in 2 ml cold RPMI-1640 and brought up to 15 ml with cold RPMI-1640 medium. Cells were centrifuged at 1500 rpm for 10 minutes. The supernatant was then aspirated and discarded. The cell pellet was re-suspended in 1 ml of cold RPMI 1640 and brought up to 15 ml with RPMI medium. This step was repeated twice, except that in the last step, the cells were resuspended with 1 ml of cold RPMI-1640 medium and cell counts were performed with a hemocytometer according to the Sigma cell culture catalogue.
Pokewood mitogen was used as a control along with positive and negative controls. Negative control cells were killed with 70% methanol. Positive (+) control cells were incubated in RPMI medium (untreated). […] of AlamarBlue was added to the cells, and readings were taken after 24 hours, 48 hours, 72 hours, and 96 hours using a fluorimeter (excitation 544/transmission 590 nm).
In choosing a peptide for possible treatment of a given indication it is important to match the therapeutic activity and specificity of the peptide with its possible toxic properties.
The protocols for WBC and WI38 stimulation have been discussed above. The RBC protocol follows Table 24.

[7] = tested on: MCF7 line of breast cancer cells; details: for MCF7 LD50: agent alone; for Active agent LD50 on MCF7 cells: Total conc.: peptide plus tamoxifen concentration at LD50; for Active agent LD50 on MCF7 cells: Peptide conc.: peptide with tamoxifen, peptide concentration at LD50; for Active agent LD50 on MCF7 cells: Tamox. conc.: tamoxifen concentration at LD50 (peptide with tamoxifen; tamoxifen alone in its own line)
[8] = in vitro; details: human, WI38 normal lung fibroblast cells
[9] = tested on: Pseudomonas aeruginosa ATCC 9027; assay: Antimicrobial assay I, MIC by OD measurement; type: cell-based; details: 37° C. for 24 hours, absorbance 620 nm
[10] = tested on: Staphylococcus aureus ATCC 6538; assay: Antimicrobial assay I, MIC by OD measurement; type: cell-based; details: 37° C. for 24 hours, absorbance 620 nm
[11] = tested on: yeast (Saccharomyces cerevisiae); assay: Antimicrobial assay I, yeast assay in RPMI 1640; type: cell-based; details: RPMI 1640 media
[12] = tested on: BMKC; assay: Anti-cancer assay, MTT, LD50; type: cell-based; details: BMKC cloned melanoma line, 24 hours with peptide
Source text: as §2

[13] = tested on: H1299; assay: Anti-cancer assay, MTT, LD50; type: cell-based; details: 24 hours with peptide, lung large cell carcinoma
Source text: as §2

[14] = tested on: HeLaS3; assay: Anti-cancer assay, MTT, LD50; type: cell-based; details: 24 hours with peptide, cervical carcinoma
Source text: as §2

[15] = tested on: PC3; assay: Anti-cancer assay, MTT, LD50; type: cell-based; details: 24 hours with peptide, prostate adenocarcinoma
Source text: as §2

[16] = tested on: SW480; assay: Anti-cancer assay, MTT, LD50; type: cell-based; details: SW480 colon adenocarcinoma line, 24 hours with peptide
Source text: as §2

[17] = tested on: clinical tobramycin resistant strain 960890198-3c; assay: Activity against drug resistant strains; type: cell-based; details: clinical tobramycin resistant strain; Table 47
Procedure: (§3) Peptides were assayed for their activity against tobramycin sensitive and resistant strains.

[18] = tested on: tobramycin sensitive (ts) Pseudomonas ATCC 27853; assay: Activity against drug resistant strains; type: cell-based; details: tobramycin sensitive strain; Table 47
Procedure: as §3

[19] = tested on: WI38; details: MTT, 24 hours with peptide; normal fibroblast line
[20] = pH 7, Table 41, lower part, read-out: RBC LD50
[21] = WI38 LD50, Table 41, lower part

With “MPRWRLFRRIDRVGKQIKQGILRAGPAIALVGDARAVG [Shiva-1]” the viability at 0.01 µM [1] was 100%, the viability at 0.1 µM [1] was 69.6% and the viability at 1 µM [1] was 37.9%. The viability at 5 µM [1] was 1.5%, the viability at 25 µM [1] was 0% and the viability at 0.01 µM ([2]; S. intermedius 19930) was 100%. The viability at 0.1 µM ([2]; S. intermedius 19930) was 81.8%, the viability at 0.5 µM ([2]; S. intermedius 19930) was 65% and the viability at 1 µM ([2]; S. intermedius 19930) was 42.1%. The viability at 5 µM ([2]; S. intermedius 19930) was 35.2%, the viability at 10 µM ([2]; S. intermedius 19930) was 1.2% and the viability at 50 µM ([2]; S. intermedius 19930) was 0%. The viability at 0.01 µM ([2]; S. intermedius 20034) was 100%, the viability at 0.5 µM ([2]; S. intermedius 20034) was 80% and the viability at 5 µM ([2]; S. intermedius 20034) was 4.1%. The viability at 50 µM ([2]; S. intermedius 20034) was 0%, the viability at 0.01 µM [3] was 100% and the viability at 0.1 µM [3] was 100%. The viability at 0.5 µM [3] was 50.1%, the viability at 1 µM [3] was 24.4% and the viability at 5 µM [3] was 15.9%. For the same substance, the viability at 10 µM [3] was 4.5% and the viability at 50 µM [3] was 1.6%.

In the case of FALALKALKKAL-NH2 [106 (144)], the “MCF7 LD50” value [4] is reported as 310 µg/mL, the HC50 at 1 h [5, 20] is reported as 600 µg/mL and the CC50 [6] is reported as 320 mg/L. The “MCF7 LD50” value [7] was 310 µg/mL, the “Active agent LD50 on MCF7 cells: Total conc.” value [7] was 42.7 µg/mL and the “Active agent LD50 on MCF7 cells: Peptide conc.” value [7] was 35 µg/mL. The “Active agent LD50 on MCF7 cells: Tamox. conc.” value [7] was 7.7 µg/mL and the CC50 at 24 h [8, 21] was 740 mg/L.

With KLAKKLAKLAKLAKAL-OH [121 (160)] the “MCF7 LD50” value [4] was 240 µg/mL, the HC50 at 1 h [5, 20] was greater than 1000 µg/mL and the CC50 [6] was 900 mg/L. The “MCF7 LD50” value [7] was 240 µg/mL, the “Active agent LD50 on MCF7 cells: Total conc.” value [7] was 14.7 µg/mL and the “Active agent LD50 on MCF7 cells: Peptide conc.” value [7] was 11 µg/mL. The “Active agent LD50 on MCF7 cells: Tamox. conc.” value [7] was 3.7 µg/mL and the CC50 at 24 h [8, 21] was 700 mg/L.

In the case of FAKALAKLAKKLL-NH2 [P92], the “paerug9027 (MIC)” value [9] is reported as 5 mg/L, the “staph6538 (MIC)” value [10] is reported as 5 mg/L and the “yeast (MIC or MFC)” value [11] is reported as 50 mg/L. The “LD50 BMKC” value [12] was 46 µg/mL, the “H1299 LD50” value [13] was 25 µg/mL and the “HeLaS3 LD50” value [14] was 670 µg/mL. For the same substance, the “LD50 MCF7” value ([4]; MCF7 breast adenocarcinoma line, MTT, 24 hours with peptide) was 23 µg/mL, the “PC3 LD50” value [15] was 83 µg/mL and the “LD50 SW480” value [16] was 51 µg/mL. The HC50 at 1 h ([5]; pH 7, hemolytic assay, concentration at 50% hemolysis, 1 hour at 37° C., read-out: LD50) was 300 µg/mL, the “activity against tr Pseudomonas 960890198-3c” value [17] was 50 and the “activity against ts Pseudomonas 27853” value [18] was 63. The “WI38 LD50” value [19] was 43 µg/mL and the CC50 at 24 h ([8]; LD50 WI38, WI38 normal lung fibroblast line, MTT, 24 hours with peptide) was 43 mg/L.

In the case of FAKKLAKKLKKLAKKLAK-NH2 [164 (69)], the “MCF7 LD50” value [4] is reported as 79 µg/mL, the HC50 at 1 h [5, 20] is reported as 900 µg/mL and the CC50 [6] is reported as 140 mg/L. For the same substance, the “MCF7 LD50” value [7] was 79 µg/mL, the “Active agent LD50 on MCF7 cells: Total conc.” value [7] was 7.1 µg/mL and the “Active agent LD50 on MCF7 cells: Peptide conc.” value [7] was 2.5 µg/mL. The “Active agent LD50 on MCF7 cells: Tamox. conc.” value [7] was 4.6 µg/mL and the CC50 at 24 h [8, 21] was 60 mg/L.
